Test system: interleukin-8 secreted by normal human epidermal keratinocytes (NHEKs)
Experiment: Inhibition of IL-8 secretion by NHEKs after stimulation with PMA (anti-irritant test)
Format: cell-based
Conditions: NHEK, test compounds at 10 μM, NHEKs with 160 nM PMA, 24 hours at 37° C., IL-8 by ELISA
Excerpt: Inhibition of the response of superficial epidermal cells to an irritant agent by assay of the interleukin-8 secreted by normal human epidermal keratinocytes (NHEKs) after stimulation with phorbol 12-myristate 13-acetate (PMA) as irritant agent.
This study uses the test developed by Wilmer [Wilmer, J. L. et al., J. invest. Dermatol., 102: 915-922 (1994)]. This test allows the evaluation of the antiirritant potential of various molecules, on a human keratinocyte (NHEK) cell line. In this test, an irritant situation is mimicked by exacerbating the production of IL-8 of the NHEKs by adding PMA to the culture medium, IL-8 being involved in initiating the keratinocyte irritation. The antiirritant effect of a molecule is then measured by means of its inhibitory action with respect to this exacerbated production.
Normal human epidermal keratinocytes (NHEKs) sold by the company Clonetics and distributed in France by the company TEBU are incubated in the presence of 160 nM of PMA for 24 hours at 37° C. In response to the PMA, the production of the chemotactic agent interleukin-8 (IL-8) is measured by enzymatic assay using an assay kit (Elisa D8050) sold by the company R&D. The absorbance values are measured using a microplate reader (MRX/Dynatech) according to the procedures supplied with. the assay kit. […]

`c1ccc(OCCCn2cnc(-c3ccccc3)c2-c2ccccc2)cc1` [3-phenoxypropyl(4,5-diphenylimidazol)-1-yl] was tested, and the inhibition at 10 µM was 32%.
For `c1ccc(COCCCn2cnc(-c3ccccc3)c2-c2ccccc2)cc1` [Example 1, 3-benzyloxypropyl-(4,5-diphenylimidazol)-1-yl], the inhibition at 10 µM was 41%.

— patent US20040192928A1, “Novel compounds of the family of 3-alkyl-(4,5-diphenyl-imidazol-1-yl) and their use as soothing agents” (priority 2001, published 2004)
